Assay [1] addresses T1, Protein kinase C alpha type (Homo sapiens, UniProt P17252). As to the kind of experiment: Activation of human recombinant PKCalpha assessed as rate of phosphate incorporation into PepTag C1 peptide at 1 to 100 uM after 40 mins by agarose gel electrophoresis analysis.
The target of assay [2] is T1, Protein kinase C alpha type. The experiment in a line: Displacement of [3H]PDBu from human recombinant PKCalpha after 20 mins by liquid scintillation counting.
Assay [3] shares this target. As to the kind of experiment: Activation of human recombinant PKCalpha assessed as rate of phosphate incorporation into PepTag C1 peptide at 0.001 uM after 40 mins by agarose gel electrophoresis analysis relative to control.
The target is the same in assay [4]. As to the kind of experiment: Activation of human recombinant PKCalpha assessed as rate of phosphate incorporation into PepTag C1 peptide at 10 uM after 40 mins by agarose gel electrophoresis analysis relative to control.
Assay [5] shares this target. The experiment in a line: Activation of human recombinant PKCalpha assessed as rate of phosphate incorporation into PepTag C1 peptide at 0.01 uM after 40 mins by agarose gel electrophoresis analysis relative to control.
The target is the same in assay [6]. As to the kind of experiment: Activation of human recombinant PKCalpha assessed as rate of phosphate incorporation into PepTag C1 peptide at 1 uM after 40 mins by agarose gel electrophoresis analysis relative to control.
Assay [7] has the same target. The experiment in a line: Activation of human recombinant PKCalpha assessed as rate of phosphate incorporation into PepTag C1 peptide at 0.1 uM after 40 mins by agarose gel electrophoresis analysis relative to control.
For assay [8] the target is unchanged. The experiment in a line: Activation of human recombinant PKCalpha assessed as rate of phosphate incorporation into PepTag C1 peptide at 100 uM after 40 mins by agarose gel electrophoresis analysis relative to control.
The target is the same in assay [9]. The experiment in a line: Activation of human recombinant PKCalpha assessed as rate of phosphate incorporation into PepTag C1 peptide at 0.0001 uM after 40 mins by agarose gel electrophoresis analysis relative to control.

Active and inactive are the calls of the source. No cut-off for these calls is given here.

Take `CCCCCCCCCCCCO[C@H]1[C@@H](OCc2ccc(F)cc2)[C@H](OCc2ccc(F)cc2)[C@@H](OCC#Cc2cccc3c2C(=O)O[C@]3(CO)COC(=O)C(C(C)(C)C)C(C)(C)C)[C@H](OCc2ccc(F)cc2)[C@H]1OCc1ccc(F)cc1`: the outcome in assay [1] was Active. For the same compound, the Ki in assay [2] is greater than 20000 nM.
The corresponding values for `CCCCCCCCCCCCO[C@H]1[C@@H](OCc2ccccc2)[C@H](OCc2ccccc2)[C@@H](OCC#Cc2cccc3c2C(=O)O[C@]3(CO)COC(=O)C(C(C)(C)C)C(C)(C)C)[C@H](OCc2ccccc2)[C@H]1OCc1ccccc1` are “Active” and greater than 20000 nM.
For `CCCCCCCCCCCCOc1cccc2c1C(=O)O[C@]2(CO)COC(=O)CCCCCCCCCCC`, the Ki in [2] was greater than 3000 nM.
In the case of `CCCCCCCCCCCCCC(=O)O[C@@H]1[C@@H](C)[C@@]2(O)[C@@H](C=C(CO)C[C@]3(O)C(=O)C(C)=C[C@@H]23)[C@@H]2C(C)(C)[C@]12OC(C)=O`, the Activity worked out at 11.1% in assay [3]; 100% in assay [4]; 62.4% in [5]; 85.3% in assay [6]; 80.6% in assay [7]; 108% in [8]. Besides, the Activity in assay [9] was found to be 0.58%.
As to `CCCCCCCCCCCCO[C@@H]1[C@H](OC)[C@@H](OC)[C@H](OCC#Cc2cccc3c2C(=O)O[C@]3(CO)COC(=O)C(C(C)(C)C)C(C)(C)C)[C@@H](OC)[C@@H]1OC`, the result in [1] was Active. In assay [2], the Ki was 600 nM.
As to `CCCCCCCCCCCCOc1cccc2c1C(=O)O[C@]2(CO)COC(=O)C(C(C)(C)C)C(C)(C)C`, the Ki in assay [2] came out at 43 nM.
Regarding `CCCCCCCCCCCCO[C@@H]1[C@H](OCC=C(C)C)[C@@H](OC/C=C/C(C)C)[C@H](OCC#Cc2cccc3c2C(=O)O[C@]3(CO)COC(=O)C(C(C)(C)C)C(C)(C)C)[C@@H](OCC=C(C)C)[C@@H]1OCC=C(C)C`, in [1], the outcome was Active. Moreover, in assay [2], the Ki is greater than 20000 nM.
For `CCCCCCCCCCCCO[C@H]1[C@@H](OC(C)=O)[C@H](OC(C)=O)[C@@H](OCC#Cc2cccc3c2C(=O)O[C@]3(CO)COC(=O)C(C(C)(C)C)C(C)(C)C)[C@H](OC(C)=O)[C@H]1OC(C)=O`, the outcome in assay [1] was Active. Further, the Ki in assay [2] stood at 2340 nM.
`CCCCCCCCCCCCO[C@H]1[C@@H](OCc2ccc(C(C)C)cc2)[C@H](OCc2ccc(C(C)C)cc2)[C@@H](OCC#Cc2cccc3c2C(=O)O[C@]3(CO)COC(=O)C(C(C)(C)C)C(C)(C)C)[C@H](OCc2ccc(C(C)C)cc2)[C@H]1OCc1ccc(C(C)C)cc1`: in [1], the result was Active. Moreover, the Ki in assay [2] is greater than 20000 nM.
